“And” between values parts separate entries of the source, which are not always exact repeats. Equal entries are not always repeated.
How the values were obtained:
Assay type in all cases: in vivo, human
[1] = test system: conversion of 5-ALA to protoporphyrin IX (PpIX); assay: Fluoderm fluorescence after 940 nm photopreparation and 5-ALA, one subject (Example 11)
Experimental: In order to measure the effect of photopreparation on the skin we used an LED device (Lumiphase 940 nm, CW and Pulsed, irradiance: 70 mW/cm2, OpusMed, Montreal, Canada) prior to the application of a photosensitizer (5-ALA: Levulan, Kerastick, DUSA Pharmaceuticals, USA). We tested both CW and sequential pulsing modes 24 h and 30/15 minutes (total fluence 63 J/cm^2 before the application of 5-ALA for 3 hours). Following an incubation time of 3 hours, we measured the fluorescence induced by the conversion of 5-ALA to protoporphyrin IX (PpIX) with a dedicated device (Fluoderm, Dia-Medico ApS, Danemark). The pulsed radiation, referred to as D50 hereinbelow, consisted in pulse trains of 4 pulses with pulses lasting 500 μs separated with an inter-pulse interval within each train of 150 μs. The pulse trains were separated from each other by 1550 μs. Higher numbers mean higher conversion to PpIX, and thus indicate that the PDT treatment will be more efficient. All parameters were tested on adjacent portion of the subject's skin. The experiment was performed on the back of a person with phototype I.

[2] = test system: diffuse sebaceous gland hyperplasia; assay: Split-face radiant IR skin preparation prior to PDT, diffuse sebaceous gland hyperplasia (Example 4)
Experimental: A PDT treatment was performed on the face of a patient suffering from diffuse sebaceous gland hyperplasia. They were complaining of redness exacerbated by exercise/effort. […] Facial lesions were distributed mainly on the forehead and cheeks. […] They applied only topical Metrogel. […] Also, comedones and papulo-pustules were present. The patient was skin phototype II (Fitzpatrick classification). Their parent had similar skin condition.
Prior to PDT, radiant IR skin preparation was performed in only half of face (split face study). Then PDT was completed on the complete facial area. First, the face was washed with a mild soap and an acetone scrub was performed. A 970 nm LED source prototype emitting at 50 mW/cm2 in a CW mode was placed at 1.5 cm from the right side of face and left for 25 min. Right after split face irradiation, 5-aminolevilinic acid (Levulan™ Kerastick™) was applied to the treatment area and left for 90 min. The photosensitizer was then light activated by a 630 nm LED source emitting at 50 mW/cm^2 (LumiPhase-RB, Opusmed, Canada), until erythema was reached (20 min). This treatment was concluded by a 405 nm LED source emitting at 30 mW/cm^2 (LumiPhase-RB, Opusmed, Canada), for 5 min. […] Through a mechanism involving the opening of skin pores, IR radiant skin preparation enhanced drug penetration and absorption by the targeted structures (i.e. sebaceous glands).

[3] = test system: transformation of 5-aminolevulinic acid to protoporphyrin IX (PpIX); assay: FluoDerm fluorescence after 940 nm photopreparation 24, 48, 72 h before 5-ALA, 4 subjects (Example 12)
Experimental: To obtain greater statistical power and investigate even longer term effects, the above study was repeated on other subjects. Below, the results or comparison between the D50 and CW protocols are shown for 4 subjects. Irradiation was performed in accordance with the pattern of FIG. 44, with measurements taken 24, 48 and 72 hours after pre-treatment with D50 and CW, instead of 8-14, 24-29 and 50-53.
More specifically, delineated treatment areas were drawn on each subject's back. These spaces had to be close enough together to enable simultaneous irradiation downstream in the experiment. Areas of each patient's back were then irradiated according to the predetermined photopreparation treatment parameter at the appropriate pre-5-ALA application and activation time. In this study, two light pulsing options were compared—pulsed versus continuous. Both options were set at 940 nm. The time set between the photopreparation treatment and the 5-ALA application was the other variable tested. […] Following the appropriately timed photopreparation treatment of the correct back skin area, 20% 5-aminolevulinic acid (Levulan Kerastick, Dusa, Wilmington, USA) was applied to the patient's back. After the topical application, an incubation time of 3 hours was set to optimize the transformation of the medication to protoporphyrin IX (PpIX). Finally, using the Fluoroderm device, the fluorescence of each subject's back areas was measured. The recorded data was statistically analyzed.
Besides the 20% 5-aminolevulinic acid (Levulan Kerastick, Dusa, Wilmington, USA) used as the photosensitizer and the FluoDerm (Dia-Medico, Denmark) to quantify the fluorescence of each patient's back, a prototype able to irradiate the back skin areas with pulsed (D50 pulsing condition) and continuous wavelength (CW) light at 940 nm was built. This machine was assembled at RoseLab Skin Optics Research Laboratory (Montreal, Canada). The D50-940 nm condition was made up of 940 nm light with a pulsing pattern consisting of a 50% duty cycle delivered in the repeating pattern (in μseconds where PD, PI, and PTI mean pulse duration, pulse interval, and pulse train interval, respectively) of: PD 500 on, PI 150 off, PD 500 on, PI 150 off, PD 500 on and PTI 1550 off (FIG. 3). The irradiance delivered for all conditions (D50 and CW) was 75 mW/cm^2 and the fluence delivered for all conditions was 67.5 J/cm^2 (940 nm LED treatment duration D50=30 min and CW=15 min).
The FluoDerm measured each tested condition. These measurements were then compared to the control (only 5-ALA without photopreparation). The means of these proportional changes were calculated. The final results were categorized by every photopreparation condition (72, 48 and 24 hours pre-treatment). A 95% confidence interval was calculated for each mean.
The data is analyzed and presented as X-fold changes (or differences) as compared to the just 5-ALA control below. Higher number show a higher effect of pre-treatment with IR radiation.

Q: How did the “Fold increase of fluorescence compared to 5-ALA alone” value (“Fold increase of fluorescence” for short) ([1]; PP 15 min pre-5-ALA: CW - 15 min) turn out when `NCC(=O)CCC(=O)O` [5-ALA, 5-aminolevulinic acid] was run?
A: 1.09 fold and 1.03 fold

Q: And the “Fluoderm Measurements, Post 3 hour incubation (5-ALA)” value (“Fluoderm Measurements” below) ([1]; PP 15 min pre-5-ALA: CW - 15 min, 940 nm, 70 mW/cm2)?
A: 51

Q: And the “Fold increase of fluorescence” value ([1]; PP 30 min pre-5-ALA: D50 - 30 min)?
A: 1.19 fold

Q: And the “Fluoderm Measurements” value ([1]; PP 30 min pre-5-ALA: D50 - 30 min, 940 nm, 70 mW/cm2)?
A: 59

Q: What about the “Fold increase of fluorescence” value ([1]; PP 24 h pre-5-ALA: CW - 15 min) of the same compound?
A: 1.13 fold

Q: What about the “Fluoderm Measurements” value ([1]; PP 24 h pre-5-ALA: CW - 15 min, 940 nm, 70 mW/cm2) of the same compound?
A: 56

Q: And the “Fold increase of fluorescence” value ([1]; PP 24 h pre-5-ALA: D50 - 30 min)?
A: 1.45 fold

Q: And the “Fluoderm Measurements” value ([1]; PP 24 h pre-5-ALA: D50 - 30 min, 940 nm, 70 mW/cm2)?
A: 72

Q: And the “Fold increase of fluorescence” value ([1]; Positive control: 5-ALA alone)?
A: 1 fold

Q: What about the “Fluoderm Measurements” value ([1]; Positive control: 5-ALA alone, no photopreparation) of the same compound?
A: 49.5

Q: And the “time clearing was maintained post-treatment” value ([2]; especially on the radiant IR pre-treated side)?
A: up to 6 months

Q: What about the “improvement of SH lesions” value ([2]; other side, no IR preparation, PDT alone, single treatment) of the same compound?
A: 30%

Q: What about the “X-fold change of fluorescence as compared to the just 5-ALA control, Mean” value (shortened to “X-fold change of fluorescence”) ([3]; 24 hours pre-treatment, CW-940, 75 mW/cm2, 67.5 J/cm2) of the same compound?
A: 1.18 fold

Q: What about the “X-fold change of fluorescence” value ([3]; 24 hours pre-treatment, D50-940, 75 mW/cm2, 67.5 J/cm2) of the same compound?
A: 1.27 fold

Q: And the “X-fold change of fluorescence” value ([3]; 48 hours pre-treatment, CW-940, 75 mW/cm2, 67.5 J/cm2)?
A: 1.34 fold

Q: And the “X-fold change of fluorescence” value ([3]; 48 hours pre-treatment, D50-940, 75 mW/cm2, 67.5 J/cm2)?
A: 1.08 fold

Q: What about the “X-fold change of fluorescence” value ([3]; 72 hours pre-treatment, CW-940, 75 mW/cm2, 67.5 J/cm2) of the same compound?
A: 1.05 fold

Q: And the “X-fold change of fluorescence” value ([3]; 72 hours pre-treatment, D50-940, 75 mW/cm2, 67.5 J/cm2)?
A: 0.94 fold

From US10632324B2, “Method for the treatment of skin tissues” (9127-4910 Quebec Inc., priority 2017, dated 2020)
